In brackets after ≈: the same amount, converted by molar mass. Activity calls are given as the source filed them. The calls are words filed in the database; no cut-off is given here. A value given as a limit tells only on which side of the number the result lay.

One series deals with Hepatitis C virus. The series can be described thus: Antiviral activity against HCV infected in human HuH5.2 assessed as inhibition of viral RNA synthesis after 4 days by Steady-Glo-luciferase assay. The settings on record: Huh-5-2, 96 h. It counts as functional, organism-based, Hepacivirus hominis.
A short description of series [1]: Cytostatic activity against human HuH5.2 after 3 days by MTS/PMS assay. Type of series: ADME, Huh-5-2. Particulars: HuH5.2 cells.
The next series deals with Hepacivirus hominis. The series is described as follows: Inhibition of HCV recombinant NS5B RNA polymerase expressed in Escherichia coli up to 100 uM by liquid scintillation counter.
The subject of series [2] is Vero. The series can be described thus: Cytostatic activity against african green monkey Vero cells. It counts as ADME, cell-based. Particulars: chlorocebus sabaeus.
The test system of series [3] is Vero. The series is described as follows: Cytostatic activity against african green monkey Vero cells in presence of guanosine. It counts as ADME, cell-based. The settings on record: chlorocebus sabaeus.
A short description of series [4]: Inhibition of ATPase activity of HCV […] expressed in Escherichia coli. Set-up: species or system Hepacivirus hominis.
A short description of series [5]: Inhibition of HCV NS3 helicase expressed in Escherichia coli. Set-up: species or system Hepacivirus hominis.
In series [6] the test system is Bovine viral diarrhea virus 1. The series is described as follows: Antiviral activity against Bovine viral diarrhea virus infected in MDBK cells assessed as inhibition of virus-induced cytopathic effect after 4 to 5 days by microscopy. It counts as functional, organism-based. The settings on record: Bovine viral diarrhea virus isolates and strains.
Series [7] is described as follows: Cytotoxicity against MDBK cells after 3 days by MTS/PMS method. It counts as cell-based, Bos taurus. Particulars: cattle.
The target of series [8] is DNA topoisomerase 2-alpha (Homo sapiens) (UniProt P11388). The series is described as follows: Inhibition of human topoisomerase 2.
DNA topoisomerase 2-alpha (Homo sapiens), sequence (P11388 whole entry): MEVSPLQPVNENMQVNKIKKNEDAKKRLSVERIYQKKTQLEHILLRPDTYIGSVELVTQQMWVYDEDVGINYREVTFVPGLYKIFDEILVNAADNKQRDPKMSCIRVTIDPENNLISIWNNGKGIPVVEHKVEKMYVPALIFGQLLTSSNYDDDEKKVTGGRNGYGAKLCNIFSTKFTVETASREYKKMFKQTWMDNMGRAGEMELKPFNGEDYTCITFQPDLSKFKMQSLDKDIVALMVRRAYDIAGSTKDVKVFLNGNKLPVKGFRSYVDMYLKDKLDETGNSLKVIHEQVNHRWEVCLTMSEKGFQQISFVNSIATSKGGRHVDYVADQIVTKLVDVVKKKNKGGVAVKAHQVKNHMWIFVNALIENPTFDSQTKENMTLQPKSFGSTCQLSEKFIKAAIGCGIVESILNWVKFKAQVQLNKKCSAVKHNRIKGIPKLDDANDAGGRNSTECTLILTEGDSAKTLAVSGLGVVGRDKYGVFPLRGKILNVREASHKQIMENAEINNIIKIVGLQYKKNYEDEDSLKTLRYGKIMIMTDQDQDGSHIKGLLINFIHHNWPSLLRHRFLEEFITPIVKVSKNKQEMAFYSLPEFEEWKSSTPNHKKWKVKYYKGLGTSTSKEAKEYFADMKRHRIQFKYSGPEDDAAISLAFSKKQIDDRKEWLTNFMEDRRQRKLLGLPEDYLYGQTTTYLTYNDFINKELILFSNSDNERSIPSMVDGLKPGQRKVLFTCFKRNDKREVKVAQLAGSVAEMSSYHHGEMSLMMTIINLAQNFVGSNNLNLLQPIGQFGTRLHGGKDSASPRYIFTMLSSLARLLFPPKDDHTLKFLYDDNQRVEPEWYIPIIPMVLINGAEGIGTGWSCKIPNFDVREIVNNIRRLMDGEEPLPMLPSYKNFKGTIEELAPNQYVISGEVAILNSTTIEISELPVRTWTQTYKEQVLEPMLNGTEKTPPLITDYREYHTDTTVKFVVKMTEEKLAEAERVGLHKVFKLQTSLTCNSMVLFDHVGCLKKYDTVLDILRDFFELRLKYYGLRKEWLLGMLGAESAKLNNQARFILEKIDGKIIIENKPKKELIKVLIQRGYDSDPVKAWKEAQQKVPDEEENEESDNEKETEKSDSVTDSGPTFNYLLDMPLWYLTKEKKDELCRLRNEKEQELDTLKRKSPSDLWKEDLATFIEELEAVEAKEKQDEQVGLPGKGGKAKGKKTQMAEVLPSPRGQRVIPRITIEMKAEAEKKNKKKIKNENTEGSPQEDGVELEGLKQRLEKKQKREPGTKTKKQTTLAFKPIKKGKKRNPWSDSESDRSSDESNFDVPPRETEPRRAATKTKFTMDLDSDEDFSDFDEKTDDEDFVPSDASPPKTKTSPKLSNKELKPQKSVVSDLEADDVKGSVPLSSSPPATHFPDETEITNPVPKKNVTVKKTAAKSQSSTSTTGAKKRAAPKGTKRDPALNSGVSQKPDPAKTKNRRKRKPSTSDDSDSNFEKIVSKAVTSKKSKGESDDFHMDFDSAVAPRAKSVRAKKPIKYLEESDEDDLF

For `COc1cc(OC)c2c(=O)c3cc(N)c(N4CCN(c5nccs5)CC4)cc3n(C)c2c1`, the EC50 in the series with Hepatitis C virus was determined as 3 µg/mL (≈ 6.64 µM). In series [1], this molecule returned a CC50 at 72 h greater than 50 µg/mL. Also, the outcome in the series on Hepacivirus hominis was inactive. Besides, the Activity entry in the series with Vero [2] is listed as “Toxic”; with Vero [3], “Non-toxic”. Moreover, the IC50 in series [4] is greater than 1000 µM; in series [5], 50 µg/mL (≈ 111 µM).
In the case of `Cn1c2cc(N3CCN(c4ccccn4)CC3)c(N)cc2c(=O)c2c(O)cc(O)cc21`, the values for the EC50 (in series [6]; with Hepatitis C virus) were 0.5 µg/mL (≈ 1.2 µM) and 1.7 µg/mL (≈ 4.07 µM), respectively. For the same molecule, the CC50 at 72 h in [1] was 21 µg/mL (≈ 50.3 µM); in [7] it was greater than 100 µg/mL. In addition, the result (in the series on Hepacivirus hominis; in [8]) was inactive. For the same molecule, the IC50 in [4] was greater than 1000 µM.
For the molecule `COc1cc(OCC(C)C)c2c(=O)c3cc(N)c(N4CCN(c5ccccn5)CC4)cc3n(C)c2c1`, in the series with Hepatitis C virus, the EC50 came out at 3.8 µg/mL (≈ 7.79 µM). Besides, it took 27 µg/mL (≈ 55.4 µM) to reach half-maximal cytotoxicity in series [1] (CC50 at 72 h). Also, the outcome with Hepacivirus hominis was inactive. For the same molecule, the values for the Activity entry in the series on Vero [2] and in the series on Vero [3] were “Toxic” and “Non-toxic”, respectively. In [4], this molecule showed an IC50 greater than 1000 µM.
For `COc1cc(OC)c2c(=O)c3cc(N)c(N4CCN(c5ccncc5)CC4)cc3n(C)c2c1`, in the series with Hepatitis C virus, the EC50 worked out at 5.5 µg/mL (≈ 12.3 µM). In addition, in series [1], the CC50 at 72 h is greater than 50 µg/mL. Further, the result in the series with Hepacivirus hominis was inactive. Besides, the Activity entry in the series on Vero [2] is recorded as “Toxic”; in the series on Vero [3] it was “Non-toxic”. The IC50 in series [4] is greater than 1000 µM.
In the case of `Cn1c2cc(Cl)c(N)cc2c(=O)c2c(O)cc(O)cc21`, the figures for the EC50 (in series [6]; in the series with Hepatitis C virus) were 0.4 µg/mL (≈ 1.38 µM) and 1.48 µg/mL (≈ 5.09 µM), respectively. Also, the CC50 at 72 h in series [1] stood at 3 µg/mL (≈ 10.3 µM); in series [7], 5 µg/mL (≈ 17.2 µM). In addition, the outcome (in the series with Hepacivirus hominis; in [8]) was inactive. Further, the IC50 in series [4] is greater than 1000 µM.
With `COc1cc(OC)c2c(=O)c3cc(N)c(N4CCN(c5ccccn5)CC4)cc3n(C)c2c1`, the EC50 in [6] is greater than 100 µg/mL; with Hepatitis C virus, 1.6 µg/mL (≈ 3.59 µM). In addition, the CC50 at 72 h is 50 µg/mL (≈ 112 µM) in series [1] and greater than 100 µg/mL in series [7]. For the same molecule, the outcome (with Hepacivirus hominis; in [8]) was inactive. In addition, the Activity entry with Vero [2] is listed as “Toxic”; with Vero [3], “Non-toxic”. Also, in series [4], the IC50 was greater than 1000 µM.
For the molecule `COc1cc(O)c2c(=O)c3cc(N)c(N4CCN(c5ccccn5)CC4)cc3n(C)c2c1`, the values for the EC50 (in [6]; in the series with Hepatitis C virus) were 4 µg/mL (≈ 9.27 µM) and 13 µg/mL (≈ 30.1 µM), respectively. Further, the CC50 at 72 h in series [1] is greater than 50 µg/mL; in series [7], greater than 100 µg/mL. Further, the outcome in the series with Hepacivirus hominis was inactive. The IC50 in series [4] is greater than 1000 µM.
`COc1cc(OC)c2c(=O)c3ccc(N4CCN(c5ccccn5)CC4)cc3n(C)c2c1`: the EC50 in the series with Hepatitis C virus turned out to be 2.3 µg/mL (≈ 5.34 µM). Besides, the CC50 at 72 h in series [1] is greater than 50 µg/mL. The outcome with Hepacivirus hominis was inactive. The Activity result is “Toxic” with Vero [2] and “Non-toxic” with Vero [3]. The IC50 in [4] is greater than 1000 µM.

(Values after ChEMBL document CHEMBL1138495, “Inhibition of subgenomic hepatitis C virus RNA replication by acridone derivatives: identification of an NS3 helicase inhibitor” (J Med Chem, 2009).)
